Assay results reported in patent publication EP4610269A1, “UROKINASE PLASMINOGEN ACTIVATOR SURFACE RECEPTOR (UPAR) LIGANDS FOR DIAGNOSTIC OR THERAPEUTIC USE” (3B Pharmaceuticals GmbH, priority 2024, dated 2025).
Where a SMILES comes first, the peptide text is derived from it. Bridges are numbered along the chain shown (N, C = ends). [ ]: non-standard residue; d: D form. The star is where a group is joined. DOTA = O=C(O)CN1CCN(CC(=O)O)CCN(CC(=O)*)CCN(CC(=O)O)CC1; 2Nal = N[C@@H](Cc1ccc2ccccc2c1)C(=O)O; Ser(ΨH,HPro) = O=C(O)[C@@H]1COCN1; Hyp = O=C(O)[C@@H]1C[C@@H](O)CN1; Pentanoyl(4-Me) = CC(C)CCC(=O)*; Cha = N[C@@H](CC1CCCCC1)C(=O)O; Cit = NC(=O)NCCC[C@H](N)C(=O)O; NMeOrn = CN[C@@H](CCCN)C(=O)O; Ac6c = NC1(C(=O)O)CCCCC1; Nva = CCC[C@H](N)C(=O)O; Pentanoyl = CCCCC(=O)*; X2 = CCCOC(=O)*

Assays:
[1] = target: T1, uPAR-expressing HEC-265 human endometrial adenocarcinoma cells (Homo sapiens, UniProt Q03405); assay: Competitive FACS binding assay; settings: pIC50 category of FACS binding
T1 construct: Cell surface uPAR-expressing HEC-265 human endometrial adenocarcinoma cells; host or cells: HEC-265
T1 sequence (Q03405 23-335): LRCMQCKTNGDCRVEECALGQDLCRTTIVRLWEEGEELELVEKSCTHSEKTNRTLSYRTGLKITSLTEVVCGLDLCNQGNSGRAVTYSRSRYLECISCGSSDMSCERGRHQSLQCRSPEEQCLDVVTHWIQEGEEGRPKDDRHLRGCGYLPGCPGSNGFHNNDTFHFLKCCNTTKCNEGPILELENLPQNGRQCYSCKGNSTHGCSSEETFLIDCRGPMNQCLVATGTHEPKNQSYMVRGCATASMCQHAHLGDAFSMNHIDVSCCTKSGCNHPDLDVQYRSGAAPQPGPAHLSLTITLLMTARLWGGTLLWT
Method in brief: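 Competitive displacement of a 10 nM biotinylated peptide from HEC-265 cells (1 h, 4 °C, PBS/1% BSA), detected via APC-streptavidin by flow cytometry. pIC50 from four-parameter logistic fit of median fluorescence versus concentration.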

[2] = target: T2, human uPAR (uPAR-Fc) (Homo sapiens, UniProt Q03405); assay: Surface plasmon resonance (SPR) assay, single cycle kinetics; type: binding; settings: pKD category for uPAR SPR activity assay; uPAR-Fc on Protein A-Chip, 25°C; read-out: pKD CAT (converted)
T2 construct: comprising amino acids Leu23-Arg303 according to UniProt entry Q03405.1; purchased R&D Systems 10378-UK-100
T2 sequence (Q03405 23-303): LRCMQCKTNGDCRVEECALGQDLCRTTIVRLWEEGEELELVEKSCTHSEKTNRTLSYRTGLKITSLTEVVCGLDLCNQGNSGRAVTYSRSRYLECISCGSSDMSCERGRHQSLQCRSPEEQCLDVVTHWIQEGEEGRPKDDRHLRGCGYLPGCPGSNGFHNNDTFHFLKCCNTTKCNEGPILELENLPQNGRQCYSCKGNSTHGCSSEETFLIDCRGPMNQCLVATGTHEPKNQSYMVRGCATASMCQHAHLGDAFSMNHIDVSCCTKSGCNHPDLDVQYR
Method in brief: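 uPAR-Fc (Leu23-Arg303 extracellular domains, human IgG1 Fc) captured on Protein A chip to ~2000 RU; single-cycle kinetics at 25°C in HEPES running buffer pH 7.4 with 0.1% DMSO. KD from double-referenced sensorgrams fitted to 1:1 Langmuir model, reported as pKD.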

| IC50 [1] [nM] | Kd [2] [nM] | SMILES |
| --- | --- | --- |
| ≤ 10 | < 1.58 | CCCCC(=O)N[C@H]1CSSC[C@@H](C(N)=O)NC(=O)[C@H](CCC)NC(=O)[C@H]([C@@H](C)CC)NC(=O)[C@@H]2C[C@@H](O)CN2C(=O)[C@@H]2CCCN2C(=O)[C@H](Cc2ccccc2)NC(=O)[C@H](Cc2ccc3ccccc3c2)NC(=O)[C@H](CCC(N)=O)NC(=O)[C@H](CCCNC(=N)N)NC1=O [UPAR-259, Pent-[Cys-Arg-Gln-2Ni-Phe-Pro-Hyp-Ile-Nva-Cys]-NH2] (Pentanoyl-CRQ[2Nal]FP[Hyp]I[Nva]C-NH2; disulfide 1-10) |
| ≤ 10 | < 1.58 | CC[C@H](C)[C@@H]1NC(=O)[C@@H]2COCN2C(=O)[C@@H]2CCCN2C(=O)[C@H](Cc2ccccc2)NC(=O)[C@H](Cc2ccc(O)cc2)NC(=O)[C@H](CCC(N)=O)NC(=O)[C@H](CCCNC(N)=O)NC(=O)[C@@H](NC(=O)CCC(C)C)CSSC[C@@H](C(N)=O)NC(=O)[C@H](CC(C)C)NC1=O [UPAR-262, iHex-[Cys-Cit-Gln-Tyr-Phe-Pro-Oxa-Ile-Leu-Cys]-NH2] ({Pentanoyl(4-Me)}-C[Cit]QYFP[Ser(ΨH,HPro)]ILC-NH2; disulfide 1-10) |
| ≥ 126 | > 100 | CC[C@H](C)[C@@H]1NC(=O)[C@@H](C)NC(=O)[C@@H]2CCCN2C(=O)[C@H](C)NC(=O)[C@H](Cc2ccc(O)cc2)NC(=O)[C@H](CCC(N)=O)NC(=O)[C@H](CCCNC(N)=O)NC(=O)[C@@H](NC(=O)CCC(C)C)CSSC[C@@H](C(N)=O)NC(=O)[C@H](CC(C)C)NC1=O [UPAR-263, iHex-[Cys-Cit-Gln-Tyr-Ala-Pro-ala-Ile-Leu-Cys]-NH2] ({Pentanoyl(4-Me)}-C[Cit]QYAP[dA]ILC-NH2; disulfide 1-10) |
| ≤ 10 | < 1.58 | CCCCC(=O)N[C@H]1CSSC[C@@H](C(N)=O)NC(=O)[C@H](CCC)NC(=O)C2(CCCCC2)NC(=O)[C@@H]2C[C@@H](O)CN2C(=O)[C@@H]2CCCN2C(=O)[C@H](Cc2ccccc2)NC(=O)[C@H](Cc2ccc(O)cc2)NC(=O)[C@H](CCC(N)=O)NC(=O)[C@H](CCCNC(=N)N)NC1=O [UPAR-264, Pent-[Cys-Arg-Gln-Tyr-Phe-Pro-Hyp-Egz-Nva-Cys]-NH2] (Pentanoyl-CRQYFP[Hyp][Ac6c][Nva]C-NH2; disulfide 1-10) |
| 39.8 to 100 | > 100 | CCCCC(=O)N[C@H]1CSSC[C@@H](C(N)=O)NC(=O)[C@H](CCC)NC(=O)[C@H]([C@@H](C)CC)NC(=O)[C@H](CCCN)N(C)C(=O)[C@@H]2CCCN2C(=O)[C@H](Cc2ccccc2)NC(=O)[C@H](Cc2ccc(O)cc2)NC(=O)[C@H](CCCCNC(=O)CN2CCN(CC(=O)O)CCN(CC(=O)O)CCN(CC(=O)O)CC2)NC(=O)[C@H](CCCNC(N)=O)NC1=O [UPAR-265, Pent-[Cys-Cit-Lys(DOTA)-Tyr-Phe-Pro-Nmo-Ile-Nva-Cys]-NH2] (Pentanoyl-C[Cit]K(DOTA)YFP[NMeOrn]I[Nva]C-NH2; disulfide 1-10) |
| ≤ 10 | < 1.58 | CCCCC(=O)N[C@H]1CSSC[C@@H](C(N)=O)NC(=O)[C@H](CCC)NC(=O)[C@H]([C@@H](C)CC)NC(=O)[C@@H]2C[C@@H](O)CN2C(=O)[C@H](CC2CCCCC2)NC(=O)[C@H](Cc2ccccc2)NC(=O)[C@H](Cc2ccc(O)cc2)NC(=O)[C@H](CCC(N)=O)NC(=O)[C@H](CCCNC(=N)N)NC1=O [UPAR-266, Pent-[Cys-Arg-Gln-Tyr-Phe-Cha-Hyp-Ile-Nva-Cys]-NH2] (Pentanoyl-CRQYF[Cha][Hyp]I[Nva]C-NH2; disulfide 1-10) |
| 39.8 to 100 | 10 to 100 | CCCOC(=O)N[C@H]1CSSC[C@@H](C(N)=O)NC(=O)[C@H](CCC)NC(=O)[C@H]([C@@H](C)CC)NC(=O)[C@@H]2C[C@@H](O)CN2C(=O)[C@@H]2CCCN2C(=O)[C@H](Cc2ccccc2)NC(=O)[C@H](Cc2ccc(O)cc2)NC(=O)[C@H](CCCCNC(=O)CN2CCN(CC(=O)O)CCN(CC(=O)O)CCN(CC(=O)O)CC2)NC(=O)[C@H](CCCNC(N)=O)NC1=O [UPAR-267, Prpoc-[Cys-Cit-Lys(DOTA)-Tyr-Phe-Pro-Hyp-Ile-Nva-Cys]-NH2] (X2-C[Cit]K(DOTA)YFP[Hyp]I[Nva]C-NH2; disulfide 1-10) |
